Measured values as given in patent publication US7678826B2, “Organic compounds for the treatment of inflammatory or allergic conditions” (priority 2005, dated 2010).
pIC50, pKi: −log10 of the molar value.

Tests used:
[1] = target: T1, CRTh2 receptor (Homo sapiens, UniProt Q9Y5Y4); assay: Filtration binding assay: competition with [3H]-PGD2 on CHO.K1-CRTh2 membranes (results text calls it SPA binding assay); conditions: [3H]-PGD2 2.5 nM, Cheng-Prussoff
T1 construct: expressed in transfected cells; host or cells: CHO.K1 (Chinese Hamster Ovary) cells, CHO.K1-CRTh2
T1 sequence (Q9Y5Y4 1-395): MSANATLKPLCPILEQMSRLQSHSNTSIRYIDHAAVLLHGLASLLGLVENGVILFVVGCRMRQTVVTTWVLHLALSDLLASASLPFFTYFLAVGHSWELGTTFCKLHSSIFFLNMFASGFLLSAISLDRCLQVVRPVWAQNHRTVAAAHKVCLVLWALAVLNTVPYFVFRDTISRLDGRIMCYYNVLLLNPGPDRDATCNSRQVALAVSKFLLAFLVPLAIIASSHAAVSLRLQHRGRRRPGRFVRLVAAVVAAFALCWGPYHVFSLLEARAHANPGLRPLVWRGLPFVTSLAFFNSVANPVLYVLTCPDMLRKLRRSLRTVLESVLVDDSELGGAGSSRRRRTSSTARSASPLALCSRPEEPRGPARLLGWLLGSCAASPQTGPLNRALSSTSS
Experimental: The binding of CRTh2 antagonists is determined using membranes prepared from human CRTh2-expressing Chinese Hamster Ovary cells (CHO.K1-CRTh2). To produce cell membranes CHO.K1-CRTh2 cells cultured in roller bottles are harvested using cell dissociation buffer (Invitrogen). The cells are pelleted by centrifugation (167 g, 5 minutes). The cell pellet is incubated in hypotonic buffer (15 mM Tris-OH, 2 mM MgCl2, 0.3 mM EDTA, 1 mM EGTA, 1× Complete™ tablet) at 4° C. for 30 minutes. At 4° C. cells are homogenized using a Polytron® (IKA Ultra Turrax T25) for 5 bursts of 1 second. The homogenate is centrifuged (Beckman Optima TM TL Ultracentrifuge, 48,000 g, 30 minutes at 4° C.). The supernatant is discarded and the membrane pellet re-suspended in homogenisation buffer (75 mM Tris-OH, 12.5 mM MgCl2, 0.3 mM EDTA, 1 mM EGTA, 250 mM Sucrose, 1× Complete™ tablet. Membrane preparations are aliquoted and stored at […]. The protein content is estimated using Bradford Protein Assay Dye (Bio Rad).
The binding of [^3H]-PGD2 (157 Ci/mmol) to CHO.K1-CRTh2 membranes is determined in the absence (total binding) and presence (non-specific binding) of unlabelled PGD2 (1 μM). Subtraction of the cpm (counts per minute) of [^3H]-PGD2 binding in presence of excess unlabelled PGD2 from that observed in the absence of excess unlabelled PGD2 is defined as specific binding. Active CRTh2 antagonists are able to compete with [^3H]-PGD2 for binding to the CRTh2 receptor and are identified in a decrease in the number of cpm bound.
The assay is performed in Greiner U-bottomed 96 well-plates, in a final volume of 100 μL/well. CHO.K1-CRTh2 membranes were diluted in assay buffer (10 mM HEPES-KOH (pH 7.4), 1 mM EDTA and 10 mM MnCl2) and 10 μμg are added to each well. [^3H]-PGD2 is diluted in assay buffer and added to each well at a final concentration of 2.5 nM. To determine non-specific binding, [3H]-PGD2 binding to the CRTh2 receptor is competed with using unlabelled PGD2 at a final well concentration of 1 μM. The experiment is done in triplicate, with reagents added to the wells as follows: • 25 μL assay buffer for total binding or • 25 μL PGD2 to determine non-specific binding • 25 μL [^3H]PGD2 • […] membranes • 25 μL test compound in DMSO/assay buffer
The plates are incubated at RT on a shaker for 1 hour, and then harvested (Tomtec Harvester 9600) onto GF/C filter plates using wash buffer (10 mM HEPES-KOH, pH 7.4). […] Plates are then counted using a Packard Top Count instrument, Plates are then read on the Packard Topcount with the 3H Scintillation program (1 minute/well).
Ki (dissocation constant for the inhibition) values for the CRTh2 antagonists are reported. Ki values are determined using Sigma Plot™ software, using the Cheng-Prussoff equation. […]

[2] = target: T1, CRTh2 receptor; assay: CRTH2 cAMP functional assay: inhibition of PGD2-mediated attenuation of forskolin-induced cAMP accumulation in CHO.K1-CRTh2 cells; assay type: cell-based; conditions: 10 nM PGD2, 5 μM forskolin, cAMP Alphascreen
Experimental: Ki (dissocation constant for the inhibition) values for the CRTh2 antagonists are reported. Ki values are determined using Sigma Plot™ software, using the Cheng-Prussoff equation. Ki=IC50/1+[S]/Kd, where S is the concentration of radioligand and Kd is the dissociation constant. CRTH2 cAMP Functional Assay Protocol
This assay is conducted in CHO.K1-CRTh2 cells. cAMP is generated in the cell by stimulating cells with 5 μM forskolin, an adenylate cyclase activator. PGD2 is added to activate the CRTh2 receptor which results in the attenuation of the forskolin-induced cAMP accumulation. Potential CRTh2 antagonists are tested for their ability to inhibit the PGD2-mediated attenuation of the forskolin-induced cAMP accumulation in CHO.K1-CRTh2 cells.
For each concentration value on the dose-response curve, test compounds are prepared in assay stimulation buffer (HBSS, 5 mM HEPES, 10 μM IBMX±0.1% human serum albumin) containing DMSO (3% vol/vol) and 5 μL/well is added to an assay plate (384-well white optiplate).
CHO.K1-CRTh2 cultured in tissue culture flasks are washed with PBS and harvested with dissociation buffer. Cells are washed with PBS and resuspended in stimulation buffer to a concentration of 0.4×10^6/mL and added to the assay plate (10 μL/well).
The assay plate is incubated at room temperature on a shaker for 15 minutes.
A mix of agonist (10 nM Prostaglandin D2) and 5 μM forskolin is prepared in assay stimulation buffer and added to the assay plate (5 μL/well).
In addition, a cAMP standard is serially diluted in assay stimulation buffer and added to separate empty wells on the assay plate (20 μL/well). The cAMP standard allows for the quantification of cAMP generated in CHO.K1-CRTH2 cells.
The assay plate is incubated at room temperature on a shaker for 60 minutes.
Cell lysis buffer (Lysis buffer: Milli-Q H2O, 5 mM HEPES, 0.3% Tween-20, 0.1% human serum albumin) is added to a bead mix (containing Alphascreen™ anti-cAMP acceptor beads 0.06 units/μL, Alphascreen™ streptavidin-coated donor beads 0.06 units/μL, biotinylated cAMP 0.06 units/μL, 10 μM IBMX) is prepared under darkened conditions 60 minutes prior to addition to the assay plate. The resulting lysis mix is added to all wells of the assay plate (40 μL/well).
The assay plate is sealed with Topseal-S™ and incubated in the dark at room temperature on a shaker for 45 minutes. The plate is then counted using a Packard Fusion™ instrument.
The resulting counts per minute are converted to nM cAMP by using the prepared cAMP standard curve. IC50 values (concentration of CRTh2 antagonist required to inhibit 50% of the PGD2-mediated attenuation of forskolin-induced cAMP accumulation in CHO.K1-CRTh2 cells) are then determined using Prism™ software.

| SMILES | pKi [1] | pIC50 [2] |
| --- | --- | --- |
| CC(Oc1ccc(Cl)cc1Cc1cc(Cl)ccc1OCC(=O)O)C(=O)N1CCCC1 (racemic) [Example 1, {4-Chloro-2-[5-chloro-2-(1-methyl-2-oxo-2-pyrrolidin-1-yl-ethoxy)-benzyl]-phenoxy}-acetic acid] | 7.39 | 7.65 |
| CC(Oc1ccccc1Cc1cc(Cl)ccc1OCC(=O)O)C(=O)N1CCCC1 (single isomer, unassigned) [8 (enantiomer 1), {4-Chloro-2-[2-((R/S)-1-methyl-2-oxo-2-pyrrolidin-1-yl-ethoxy)-benzyl]-phenoxy}-acetic acid] | 7.22 | 7.60 |
| CC(Oc1ccc(Cl)cc1Cc1cc(Cl)ccc1OCC(=O)O)C(=O)N1CCOCC1 (centres unmarked) [Example 3, {4-Chloro-2-[5-chloro-2-(1-methyl-2-morpholin-4-yl-2-oxo-ethoxy)-benzyl]-phenoxy}-acetic acid] | 7.02 | 7.65 |
| CC(Oc1ccccc1Cc1cc(Cl)ccc1OCC(=O)O)C(=O)N1CCCC1 (centres unmarked) [Example 7, {4-Chloro-2-[2-(1-methyl-2-oxo-2-pyrrolidin-1-yl-ethoxy)-benzyl]-phenoxy}acetic acid] | 7.08 | 7.43 |
